Columns and labels:
Test in all cases: GR value, 72 h; higher = faster growth (1 = untreated, <0 = killing);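 note: breast cancer and non-malignant breast epithelial lines, nine half-log doses, viable cells counted by Hoechst and LIVE/DEAD dye imaging versus time-zero plates and DMSO controls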
[1] = compound: CNC(=O)c1cccc(-c2ccc3c(N4CCOC[C@@H]4C)nc(N4CCOC[C@@H]4C)nc3n2)c1 [AZD2014]
[2] = compound: CCCCOc1c(C(=O)c2c(F)cc(C)cc2F)c[nH]c2nncc1-2
[3] = compound: CC(=O)O[C@H]1C(=O)[C@@]2(C)[C@H]([C@H](OC(=O)c3ccccc3)[C@]3(O)C[C@H](OC(=O)[C@H](O)[C@@H](NC(=O)c4ccccc4)c4ccccc4)C(C)=C1C3(C)C)[C@]1(OC(C)=O)CO[C@@H]1C[C@@H]2O [Paclitaxel]
[4] = compound: CN1CCN(CC1)C2=CC(=C(C=C2)NC3=NC=C4C(=N3)N(C5=CC=CC=C5C(=O)N4CC(F)(F)F)C)OC [FMF-03-146-1]
[5] = compound: COc1cccc2c1C(=O)c1c(O)c3c(c(O)c1C2=O)C[C@@](O)(C(=O)CO)C[C@@H]3O[C@H]1C[C@H](N)[C@H](O)[C@H](C)O1 [Doxorubicin]
[6] = compound: C1=CC2=C(C=CC(=C2)C=C3C(=O)NC(=NCC4=CC=CS4)S3)N=C1 [R0-3306]
[7] = compound: CC1=CN2C(=O)C=C(N=C2C(=C1)C(C)NC3=CC=CC=C3)N4CCOCC4 [TGX221]
[8] = compound: C[C@@H]1COCCN1c1cc(C2([S@](C)(=N)=O)CC2)nc(-c2cc[nH]c3nccc2-3)n1 [AZD6738]
[9] = compound: Cc1nn(C)c(COc2ccc(N3CCN(S(=O)(=O)N(C)C)CC3)cc2)c1-c1cccc2c(CCCOc3cccc4ccccc34)c(C(=O)O)n(CCN3CCOCC3)c12
[10] = compound: CC(C)NC[C@@H](C(=O)N1CCN(c2ncnc3c2[C@H](C)C[C@H]3O)CC1)c1ccc(Cl)cc1 [Ipatasertib/GDC0068]
[11] = compound: COc1ccc2c(c1)[C@]1(C[C@H]1c1ccc3c(/C=C/c4ccc(CN5C[C@@H](C)O[C@@H](C)C5)cc4)n[nH]c3c1)C(=O)N2

AU565 was tested, and the GR value ([1]; 0.001 µM) was 0.592 GR, the GR value ([1]; 0.003162 µM) was 0.509 GR and the GR value ([1]; 0.01 µM) was 0.415 GR. For the same cell line, the GR value ([1]; 0.03162 µM) was 0.249 GR, the GR value ([1]; 0.1 µM) was 0.219 GR and the GR value ([1]; 0.3162 µM) was 0.149 GR. The GR value ([1]; 1 µM) was 0.106 GR, the GR value ([1]; 3.162 µM) was -0.0159 GR and the GR value ([1]; 10 µM) was -0.0097 GR. It also gave a GR value ([2]; 0.001 µM) of 0.763 GR, a GR value ([2]; 0.003162 µM) of 0.828 GR and a GR value ([2]; 0.01 µM) of 0.656 GR. For the same cell line, the GR value ([2]; 0.03162 µM) was 0.622 GR, the GR value ([2]; 0.1 µM) was 0.545 GR and the GR value ([2]; 0.3162 µM) was 0.489 GR. The GR value ([2]; 1 µM) was 0.372 GR, the GR value ([2]; 3.162 µM) was 0.0322 GR and the GR value ([2]; 10 µM) was -0.151 GR. For the same cell line, the GR value ([3]; 0.0001 µM) was 1.05 GR, the GR value ([3]; 0.0003162 µM) was 1.1 GR and the GR value ([3]; 0.001 µM) was 0.919 GR. It also gave a GR value ([3]; 0.003162 µM) of -0.244 GR, a GR value ([3]; 0.01 µM) of -0.459 GR and a GR value ([3]; 0.03162 µM) of -0.515 GR. For the same cell line, the GR value ([3]; 0.1 µM) was -0.482 GR, the GR value ([3]; 0.3162 µM) was -0.467 GR and the GR value ([3]; 1 µM) was -0.475 GR. It also gave a GR value ([4]; 0.001 µM) of 0.955 GR, a GR value ([4]; 0.003162 µM) of 1.02 GR and a GR value ([4]; 0.01 µM) of 1.03 GR. The GR value ([4]; 0.03162 µM) was 1 GR, the GR value ([4]; 0.1 µM) was 0.928 GR and the GR value ([4]; 0.3162 µM) was 0.924 GR. For the same cell line, the GR value ([4]; 1 µM) was 0.874 GR, the GR value ([4]; 3.162 µM) was 0.894 GR and the GR value ([4]; 10 µM) was 0.695 GR. The GR value ([5]; 0.0003162 µM) was 1.09 GR, the GR value ([5]; 0.001 µM) was 1.03 GR and the GR value ([5]; 0.003162 µM) was 1.05 GR. It also gave a GR value ([5]; 0.01 µM) of 1.01 GR, a GR value ([5]; 0.03162 µM) of 0.553 GR and a GR value ([5]; 0.1 µM) of -0.11 GR. The GR value ([5]; 0.3162 µM) was -0.234 GR, the GR value ([5]; 1 µM) was -0.385 GR and the GR value ([5]; 3.162 µM) was -0.452 GR. It also gave a GR value ([6]; 0.001 µM) of 0.805 GR, a GR value ([6]; 0.003162 µM) of 0.756 GR and a GR value ([6]; 0.01 µM) of 0.522 GR. It also gave a GR value ([6]; 0.03162 µM) of 0.735 GR, a GR value ([6]; 0.1 µM) of 0.692 GR and a GR value ([6]; 0.3162 µM) of 0.711 GR. For the same cell line, the GR value ([6]; 1 µM) was 0.548 GR, the GR value ([6]; 3.162 µM) was 0.375 GR and the GR value ([6]; 10 µM) was -0.214 GR. It also gave a GR value ([7]; 0.001 µM) of 0.923 GR, a GR value ([7]; 0.003162 µM) of 0.912 GR and a GR value ([7]; 0.01 µM) of 0.868 GR. The GR value ([7]; 0.03162 µM) was 0.964 GR, the GR value ([7]; 0.1 µM) was 0.916 GR and the GR value ([7]; 0.3162 µM) was 0.889 GR. It also gave a GR value ([7]; 1 µM) of 0.919 GR, a GR value ([7]; 3.162 µM) of 0.852 GR and a GR value ([7]; 10 µM) of 0.58 GR. For the same cell line, the GR value ([8]; 0.001 µM) was 0.973 GR, the GR value ([8]; 0.003162 µM) was 0.919 GR and the GR value ([8]; 0.01 µM) was 1.05 GR. For the same cell line, the GR value ([8]; 0.03162 µM) was 1.14 GR, the GR value ([8]; 0.1 µM) was 1 GR and the GR value ([8]; 0.3162 µM) was 0.982 GR. For the same cell line, the GR value ([8]; 1 µM) was 0.897 GR, the GR value ([8]; 3.162 µM) was 1.08 GR and the GR value ([8]; 10 µM) was 0.281 GR. For the same cell line, the GR value ([9]; 0.001 µM) was 1.03 GR, the GR value ([9]; 0.003162 µM) was 1.04 GR and the GR value ([9]; 0.01 µM) was 1.09 GR. The GR value ([9]; 0.03162 µM) was 1.03 GR, the GR value ([9]; 0.1 µM) was 1.06 GR and the GR value ([9]; 0.3162 µM) was 1.05 GR. For the same cell line, the GR value ([9]; 1 µM) was 1.03 GR, the GR value ([9]; 3.162 µM) was 1.05 GR and the GR value ([9]; 10 µM) was 0.613 GR. For the same cell line, the GR value ([10]; 0.001 µM) was 1.03 GR, the GR value ([10]; 0.003162 µM) was 1.08 GR and the GR value ([10]; 0.01 µM) was 1.03 GR. It also gave a GR value ([10]; 0.03162 µM) of 0.996 GR, a GR value ([10]; 0.1 µM) of 0.976 GR and a GR value ([10]; 0.3162 µM) of 0.809 GR. For the same cell line, the GR value ([10]; 1 µM) was 0.772 GR, the GR value ([10]; 3.162 µM) was 0.55 GR and the GR value ([10]; 10 µM) was 0.289 GR. The GR value ([11]; 0.0001 µM) was 0.968 GR, the GR value ([11]; 0.0003162 µM) was 0.96 GR and the GR value ([11]; 0.001 µM) was 0.874 GR. For the same cell line, the GR value ([11]; 0.003162 µM) was 0.602 GR, the GR value ([11]; 0.01 µM) was -0.128 GR and the GR value ([11]; 0.03162 µM) was -0.147 GR. For the same cell line, the GR value ([11]; 0.1 µM) was -0.161 GR, the GR value ([11]; 0.3162 µM) was -0.168 GR and the GR value ([11]; 1 µM) was -0.109 GR.

Source: the supplement of paper PMC9663587
